From patent US5614520A, “2-arylthiazole derivatives and pharmaceutical composition thereof” (priority 1990, dated 1997) come the findings set out here.

Like-named read-outs stand apart in the source and are kept apart here.

One experiment has as its target T1, xanthine oxidase (Bos taurus, UniProt P80457).
T1 construct: purchased Sigma Chemical Company; host or cells: butter milk
The experiment in a line: In vitro determination of xanthine oxidase (XOD) inhibition. It counts as biochemical. The conditions noted are these: xanthine oxidase from butter milk, xanthine substrate, pH 7.4, 37° C. As for the experimental part:
(1) Preparation of test compounds:
Test compounds (compounds of Ex. No. listed in Table 1) were dissolved in dimethylsulfoxide and diluted with a 50 mM phosphate buffer to prepare aqueous solutions respectively having predetermined concentrations.
The inhibition rate was determined by the following equation: [formula]
The inhibition (%) was determined on each test compound prepared according to (1), and the IC50 value on the xanthine oxidase (XOD) inhibition was calculated from the value of inhibition.

A further experiment deals with serum uric acid. Description: Determination of oral administration: lowering of serum uric acid in mice. It counts as in vivo, ICR male mice. Particulars: for inhibition in vivo at 1 mg/kg: Mus musculus, read-out: Activity of lowering uric acid. On the procedure:
Test compounds suspended in a 5% gum arabic solution was forcibly administered by oral administration (compounds of Ex. No. of Table 2, dose: 1 mg/kg) to ICR male mice (age: about 7 weeks) (one group: 6 mice) by means of an oral probe. 2 hours after the administration, thoracotomy was conducted under etherization to collect blood from the heart, and serum was removed by a conventional process. The serum uric acid was measured by a biochemical automatic analyzer (Flexigem; Electro-Nucleonics, Inc.) by using a uric acid measurement kit (UA reagent; International Reagent) to determine the percentage of the lowering of uric acid. [formula]

[1] abbreviates: ICR male mice, oral, 1 mg/kg, 2 hours after administration, serum.

T1 sequence (P80457 whole entry): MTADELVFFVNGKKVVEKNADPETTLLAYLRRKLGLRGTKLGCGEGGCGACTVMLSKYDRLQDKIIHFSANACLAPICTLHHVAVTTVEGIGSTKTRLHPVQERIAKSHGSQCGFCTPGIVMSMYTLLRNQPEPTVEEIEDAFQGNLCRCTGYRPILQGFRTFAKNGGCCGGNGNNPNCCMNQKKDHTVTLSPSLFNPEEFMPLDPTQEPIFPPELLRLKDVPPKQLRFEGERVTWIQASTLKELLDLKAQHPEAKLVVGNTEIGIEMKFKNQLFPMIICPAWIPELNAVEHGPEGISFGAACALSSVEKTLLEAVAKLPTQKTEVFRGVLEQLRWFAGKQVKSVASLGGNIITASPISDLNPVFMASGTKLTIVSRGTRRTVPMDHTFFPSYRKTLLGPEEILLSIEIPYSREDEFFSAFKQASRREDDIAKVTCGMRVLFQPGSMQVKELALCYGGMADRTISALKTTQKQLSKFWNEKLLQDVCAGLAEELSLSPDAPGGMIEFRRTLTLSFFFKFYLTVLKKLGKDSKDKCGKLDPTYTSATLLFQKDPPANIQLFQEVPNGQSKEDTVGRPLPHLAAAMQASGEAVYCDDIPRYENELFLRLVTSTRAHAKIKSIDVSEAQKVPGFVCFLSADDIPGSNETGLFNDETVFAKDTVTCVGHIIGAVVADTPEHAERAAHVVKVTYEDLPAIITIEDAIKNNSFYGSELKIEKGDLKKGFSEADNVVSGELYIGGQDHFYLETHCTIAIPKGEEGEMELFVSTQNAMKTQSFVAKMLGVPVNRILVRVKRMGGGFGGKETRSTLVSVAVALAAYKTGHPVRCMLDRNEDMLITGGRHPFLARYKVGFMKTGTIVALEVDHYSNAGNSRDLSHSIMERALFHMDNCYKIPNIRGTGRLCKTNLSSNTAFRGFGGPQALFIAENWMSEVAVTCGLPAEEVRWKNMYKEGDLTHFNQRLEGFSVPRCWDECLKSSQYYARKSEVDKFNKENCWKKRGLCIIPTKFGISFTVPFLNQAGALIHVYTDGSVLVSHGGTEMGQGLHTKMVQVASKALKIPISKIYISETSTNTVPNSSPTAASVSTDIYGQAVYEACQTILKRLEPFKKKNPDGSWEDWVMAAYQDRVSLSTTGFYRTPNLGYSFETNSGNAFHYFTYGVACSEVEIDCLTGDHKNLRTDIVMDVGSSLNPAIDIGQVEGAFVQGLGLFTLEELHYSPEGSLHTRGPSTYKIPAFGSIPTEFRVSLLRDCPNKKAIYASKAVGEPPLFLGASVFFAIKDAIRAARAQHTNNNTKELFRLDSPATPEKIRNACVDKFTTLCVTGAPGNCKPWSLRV

Consider “2-(4-morpholino-3-nitrophenyl)-4-methyl-5-thiazolecarboxylic acid [Example 38]”, for which, at xanthine oxidase, the concentration for half-maximal inhibition (IC50) came out at 1.8 nM. Further, in the experiment with serum uric acid (setting [1]), the “Activity of lowering uric acid” value is recorded as 91%.

In turn, `Cc1nc(-c2ccc(OC(C)C)cc2)sc1C(=O)O` [Example 2, 2-(4-isopropoxyphenyl)-4-methyl-5-thiazolecarboxylic acid] came in with an IC50 on xanthine oxidase of 28 nM.

Compound `Cc1nc(-c2cccc([N+](=O)[O-])c2)sc1C(=O)O` [Example 3, 4-methyl-2-(3-nitrophenyl)-5-thiazolecarboxylic acid] yielded an IC50 at xanthine oxidase of 14 nM.

On xanthine oxidase, `Cc1nc(-c2ccc([N+](=O)[O-])cc2)sc1C(=O)O` [Example 4, 4-methyl-2-(4-nitrophenyl)-5-thiazolecarboxylic acid] returned a half-maximal inhibitory concentration (IC50) of 900 nM.

At xanthine oxidase, `Cc1nc(-c2ccc(OCCCC3CCCCC3)cc2)sc1C(=O)O` [Example 8, 2-(4-(3-Cyclohexylpropyloxy)phenyl)-4-methyl-5-thiazolecarboxylic acid] returned a half-maximal inhibitory concentration (IC50) of 3.2 nM. For the same compound, the inhibition in vivo at 1 mg/kg in the experiment with serum uric acid (setting [1]) stood at 28%.

At xanthine oxidase, `Cc1nc(-c2ccc(OCc3ccc(Cl)cc3)cc2)sc1C(=O)O` [Example 9, 2-(4-(4-Chlorobenzyloxy)phenyl)-4-methyl-5-thiazolecarboxylic acid] gave an IC50 of 17 nM.

`Cc1nc(-c2ccc(OCc3ccc(F)cc3)cc2)sc1C(=O)O` [Example 10, 2-(4-(4-Fluorobenzyloxy)phenyl)-4-methyl-5-thiazolecarboxylic acid] had an IC50 against xanthine oxidase of 31 nM.

`Cc1nc(-c2cccc(C(=O)O)c2)sc1C(=O)O` [Example 13, 2-(3-carboxyphenyl)-4-methyl-5-thiazolecarboxylic acid] gave an IC50 against xanthine oxidase of 320 nM.

As to `Cc1nc(-c2ccc(C(=O)Nc3ccc(Cl)cc3)cc2)sc1C(=O)O` [Example 16, 2-(4-(4-Chlorophenylcarbamoyl)phenyl)-4-methyl-5-thiazolecarboxylic acid], in the experiment on serum uric acid (po, 2 h), the inhibition in vivo at 1 mg/kg was 21%.

`Cc1nc(-c2ccc(C(=O)N(C)c3ccc(Cl)cc3)cc2)sc1C(=O)O` [Example 17, 2-(4-(N-(4-chlorophenyl)-N-methylcarbamoyl)phenyl)-4-methyl-5-thiazolecarboxylic acid]: the IC50 at xanthine oxidase came to 500 nM.

Regarding `Cc1nc(-c2ccc(N(C)C)cc2)sc1C(=O)O` [Example 18, 2-(4-(N,N-dimethylamino)phenyl)-4-methyl-5-thiazolecarboxylic acid], on xanthine oxidase, the half-maximal inhibitory concentration (IC50) is 43 nM. In the experiment with serum uric acid (setting [1]), the inhibition in vivo at 1 mg/kg is 22%.

Consider `Cc1nc(-c2cccc(C(=O)c3ccccc3)c2)sc1C(=O)O` [Example 19, 2-(3-Benzoylphenyl)-4-methyl-5-thiazolecarboxylic acid], for which, at xanthine oxidase, the half-maximal inhibitory concentration (IC50) is 12 nM.

As to `O=C(O)c1sc(-c2cccc(Cl)c2)nc1O` [Example 21, 2-(3-chlorophenyl)-4-hydroxy-5-thiazolecarboxylic acid], the IC50 against xanthine oxidase stood at 720 nM.

At xanthine oxidase, `COc1nc(-c2ccc(OC(C)C)cc2)sc1C(=O)O` [Example 23, 2-(4-isopropoxyphenyl)-4-methoxy-5-thiazolecarboxylic acid] returned a half-maximal inhibitory concentration (IC50) of 130 nM.

On to `Cc1nc(-c2cc([N+](=O)[O-])ccc2Cl)sc1C(=O)O` [Example 24, 2-(2-Chloro-5-nitrophenyl)-4-methyl-5-thiazolecarboxylic acid], for which, on xanthine oxidase, the IC50 stood at 67 nM.

At xanthine oxidase, `CC(=O)c1cc(-c2nc(C)c(C(=O)O)s2)ccc1O` [Example 25, 2-(3-Acetyl-4-hydroxyphenyl) -4-methyl-5-thiazolecarboxylic acid] yielded an IC50 of 300 nM.

In turn, `Cc1nc(-c2cc(C(C)(C)C)c(O)c(C(C)(C)C)c2)sc1C(=O)O` [Example 29, 2-(3,5-Di-t-butyl-4-hydroxyphenyl)-4-methyl-5-thiazolecarboxylic acid] registered an IC50 at xanthine oxidase of 65 nM.

For the compound `Cc1cc(-c2nc(C)c(C(=O)O)s2)cc(C)c1O` [Example 30, 2-(3,5-Dimethyl-4-hydroxyphenyl)-4-methyl-5-thiazolecarboxylic acid], at xanthine oxidase, inhibition was half-maximal at 42 nM (IC50).

Regarding `Cc1nc(-c2ccc(OC(C)C)c([N+](=O)[O-])c2)sc1C(=O)O` [Example 31, 2-(4-isopropoxy-3-nitrophenyl)-4-methyl-5-thiazolecarboxylic acid], the IC50 at xanthine oxidase was determined as 0.57 nM. For the same compound, the inhibition in vivo at 1 mg/kg in the experiment on serum uric acid (setting [1]) worked out at 90%.

`Cc1nc(-c2ccc(OCC3CCCCC3)c([N+](=O)[O-])c2)sc1C(=O)O` [Example 32, 2-(4-Cyclohexylmethyloxy-3-nitrophenyl)-4-methyl-5-thiazolecarboxylic acid] had an IC50 at xanthine oxidase of 0.18 nM. Besides, in the experiment on serum uric acid (setting [1]), the inhibition in vivo at 1 mg/kg turned out to be 48%.

Take `CCOc1ccc(-c2nc(C)c(C(=O)O)s2)cc1[N+](=O)[O-]` [Example 33, 2-(4-Ethoxy-3-nitrophenyl)-4-methyl-5-thiazolecarboxylic acid]: at xanthine oxidase, the 50% inhibitory concentration (IC50) is 0.36 nM. For the same compound, the inhibition in vivo at 1 mg/kg with serum uric acid (setting [1]) stood at 71%.

The compound `Cc1nc(-c2ccc(OCC(C)C)c([N+](=O)[O-])c2)sc1C(=O)O` [Example 34, 2-(4-Isobutyloxy-3-nitrophenyl)-4-methyl-5-thiazolecarboxylic acid] displayed an IC50 against xanthine oxidase of 2.4 nM. Also, the inhibition in vivo at 1 mg/kg in the experiment on serum uric acid (setting [1]) turned out to be 76%.

The compound `Cc1nc(-c2ccc(SC(C)C)c([N+](=O)[O-])c2)sc1C(=O)O` [Example 35, 2-(4-isopropylthio-3-nitrophenyl)-4-methyl-5-thiazolecarboxylic acid] had an IC50 at xanthine oxidase of 0.3 nM. Besides, the inhibition in vivo at 1 mg/kg in the experiment on serum uric acid (setting [1]) is 57%.

Compound `Cc1nc(-c2ccc(Sc3ccc(Cl)cc3)c([N+](=O)[O-])c2)sc1C(=O)O` [Example 36, 2-(4-(4-chlrophenyl)thio-3-nitrophenyl)-4-methyl-5thiazolecarboxylic acid] returned an IC50 on xanthine oxidase of 0.02 nM. Besides, in the experiment with serum uric acid (setting [1]), the inhibition in vivo at 1 mg/kg came out at 14%.

Turning to `CCN(CC)c1ccc(-c2nc(C)c(C(=O)O)s2)cc1[N+](=O)[O-]` [Example 37], the half-maximal inhibitory concentration (IC50) against xanthine oxidase was 1.8 nM. For the same compound, the inhibition in vivo at 1 mg/kg in the experiment with serum uric acid (setting [1]) was 74%.

For `CCOCCOc1ccc(-c2nc(C)c(C(=O)O)s2)cc1[N+](=O)[O-]` [Example 39, 2-(4-(2-Ethoxyethyloxy)-3-nitrophenyl)-4-methyl-5-thiazolecarboxylic acid], on xanthine oxidase, the IC50 is 2.9 nM. Besides, the inhibition in vivo at 1 mg/kg with serum uric acid (setting [1]) came out at 82%.

In turn, `CCCCCCOc1ccc(-c2nc(C)c(C(=O)O)s2)cc1[N+](=O)[O-]` [Example 41, 2-(4-n-Hexyloxy-3-nitrophenyl)-4-methyl-5-thiazolecarboxylic acid] yielded an IC50 at xanthine oxidase of 0.32 nM. Also, the inhibition in vivo at 1 mg/kg in the experiment on serum uric acid (setting [1]) was 92%.

Take `CCC(CC)COc1ccc(-c2nc(C)c(C(=O)O)s2)cc1[N+](=O)[O-]` [Example 42, 2-(4-(2-Ethylbutyloxy)-3-nitrophenyl)-4-methyl-5-thiazolecarboxylic acid]: at xanthine oxidase, inhibition was half-maximal at 2 nM (IC50). Moreover, in the experiment with serum uric acid (setting [1]), the inhibition in vivo at 1 mg/kg was 75%.

Take `Cc1nc(-c2ccc(N3CCN(C)CC3)c([N+](=O)[O-])c2)sc1C(=O)O` [Example 46, 4-methyl-2-(4-(4-methylpiperazinyl)-3-nitrophenyl)-5-thiazolecarboxylic acid]: on xanthine oxidase, inhibition was half-maximal at 2.4 nM (IC50). Further, the inhibition in vivo at 1 mg/kg in the experiment on serum uric acid (setting [1]) amounted to 75%.

For `Cc1nc(-c2ccc(OC(C)C)c([N+](=O)[O-])c2)sc1C(=O)OC(C)C` [Example 47, isopropyl 2-(4-isopropoxy-3-nitrophenyl)-4-methyl-5-thiazolecarboxylate], the inhibition in vivo at 1 mg/kg in the experiment with serum uric acid (setting [1]) was determined as 92%.

As for `Cc1nc(-c2ccc(OCC(C)C)c([N+](=O)[O-])c2)sc1C(=O)OCC(C)C` [Example 48, Isobutyl 2-(4-isobutyloxy-3-nitrophenyl)-4-methyl-5-thiazolecarboxylate], in the experiment with serum uric acid (setting [1]), the inhibition in vivo at 1 mg/kg was found to be 88%.

As to `Cc1nc(-c2ccc(OCC(C)C)c(Cl)c2)sc1C(=O)O` [Example 51, 2-(3-Chloro-4-isobutyloxyphenyl)-4-methyl-5-thiazolecarboxylic acid], the IC50 at xanthine oxidase worked out at 2.1 nM. Also, in the experiment with serum uric acid (setting [1]), the inhibition in vivo at 1 mg/kg is 78%.

In turn, `CCC(CC)COc1ccc(-c2nc(C)c(C(=O)O)s2)cc1Cl` [Example 53, 2-(3-Chloro-4-(2-ethylbutyloxy)phenyl)-4-methYl-5-thiazolecarboxylic acid] displayed a 50% inhibitory concentration (IC50) at xanthine oxidase of 2.7 nM. Besides, in the experiment with serum uric acid (setting [1]), the inhibition in vivo at 1 mg/kg is 29%.

In turn, `Cc1nc(-c2ccc(OCC(C)(C)C)c(Cl)c2)sc1C(=O)O` [Example 54, 2-(3-Chloro-4-neopentyloxyphenYl)-4-methyl-5-thiazolecarboxylic acid] displayed an IC50 against xanthine oxidase of 2.9 nM. The inhibition in vivo at 1 mg/kg in the experiment with serum uric acid (setting [1]) came to 12%.

On xanthine oxidase, `CCOCCOc1ccc(-c2nc(C)c(C(=O)O)s2)cc1Cl` [Example 55, 2-(3-Chloro-4-(2-ethoxyethyloxy)phenyl)-4-methyl-5-thiazolecarboxylic acid] displayed an IC50 of 7 nM. In addition, in the experiment with serum uric acid (setting [1]), the inhibition in vivo at 1 mg/kg came out at 45%.

Turning to `Cc1nc(-c2ccc(OC(C)C)c(C#N)c2)sc1C(=O)O` [Example 76, 2-(3-cyano-4-isopropoxyphenyl)-4-methyl-5-thiazolecarboxylic acid], the inhibition in vivo at 1 mg/kg in the experiment on serum uric acid (po, 2 h) came out at 86%.

Take `Cc1nc(-c2ccc(OCC(C)C)c(C#N)c2)sc1C(=O)O` [Example 77, 2-(3-Cyano-4-isobutyloxyphenyl)-4-methyl-5-thiazolecarboxylic acid]: in the experiment on serum uric acid (po, 2 h), the inhibition in vivo at 1 mg/kg was 95%.

Turning to `Oc1ncnc2[nH]ncc12` [allopurinol, reference compound], the inhibition in vivo at 1 mg/kg in the experiment with serum uric acid (po, 2 h) was determined as 73%.
